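Grown in 96-well plates, cells were treated for 48 hours with each compound at five concentrations. Insufficient inhibition: endpoint recorded as highest concentration tested. Here, GI50 denotes the concentration required for 50% inhibition of growth. TGI marks complete inhibition of growth.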
Experiments:
Experiment in all cases: NCI anticancer screen, dose series, 48 h; in the data active = GI50 below about 0.43 µM; inactive = the rest
HT29 colon = test system: HT29 colon
NCI/ADR-RES ovarian = test system: NCI/ADR-RES ovarian
TK-10 renal = test system: TK-10 renal
SF-539 CNS = test system: SF-539 CNS
A549 NSCLC = test system: A549 NSCLC
UO-31 renal = test system: UO-31 renal
MALME-3M melanoma = test system: MALME-3M melanoma
SNB-75 CNS = test system: SNB-75 CNS
LOX IMVI melanoma = test system: LOX IMVI melanoma
COLO 205 colon = test system: COLO 205 colon
HOP-62 NSCLC = test system: HOP-62 NSCLC
SF-295 CNS = test system: SF-295 CNS
MOLT-4 leukemia = test system: MOLT-4 leukemia
BT-549 breast = test system: BT-549 breast
CAKI-1 renal = test system: CAKI-1 renal
OVCAR-3 ovarian = test system: OVCAR-3 ovarian
A498 renal = test system: A498 renal
HCT-116 colon = test system: HCT-116 colon
NCI-H226 lung = test system: NCI-H226 lung
MDA-MB-231 breast = test system: MDA-MB-231 breast
SR leukemia = test system: SR leukemia
OVCAR-4 ovarian = test system: OVCAR-4 ovarian
U251 CNS = test system: U251 CNS
NCI-H460 lung = test system: NCI-H460 lung
NCI-H522 lung = test system: NCI-H522 lung
HCC-2998 colon = test system: HCC-2998 colon
OVCAR-5 ovarian = test system: OVCAR-5 ovarian
MCF7 breast = test system: MCF7 breast
NCI-H23 lung = test system: NCI-H23 lung
786-0 renal = test system: 786-0 renal
ACHN renal = test system: ACHN renal
SK-MEL-28 melanoma = test system: SK-MEL-28 melanoma
KM12 colon = test system: KM12 colon
EKVX NSCLC = test system: EKVX NSCLC
SF-268 CNS = test system: SF-268 CNS
PC-3 prostate = test system: PC-3 prostate
SW-620 colon = test system: SW-620 colon
HOP-92 NSCLC = test system: HOP-92 NSCLC
DU-145 prostate = test system: DU-145 prostate
RPMI-8226 leukemia = test system: RPMI-8226 leukemia
SN12C renal = test system: SN12C renal
M14 melanoma = test system: M14 melanoma
SK-MEL-2 melanoma = test system: SK-MEL-2 melanoma
K-562 leukemia = test system: K-562 leukemia
SNB-19 CNS = test system: SNB-19 CNS
MDA-MB-435 = test system: MDA-MB-435
OVCAR-8 ovarian = test system: OVCAR-8 ovarian
HCT-15 colon = test system: HCT-15 colon
SK-OV-3 ovarian = test system: SK-OV-3 ovarian
IGROV1 ovarian = test system: IGROV1 ovarian
HS 578T breast = test system: HS 578T breast
CCRF-CEM leukemia = test system: CCRF-CEM leukemia
UACC-62 melanoma = test system: UACC-62 melanoma
SK-MEL-5 melanoma = test system: SK-MEL-5 melanoma
T-47D breast = test system: T-47D breast

COc1ccc(CN2c3ccccc3Sc3ccccc32)cc1F
804 nM: TGI (NCI-H522 lung)
469 nM: TGI (MDA-MB-435)
active: GI50 (HT29 colon) 352 nM | GI50 (NCI/ADR-RES ovarian) 322 nM | GI50 (SF-539 CNS) 316 nM | GI50 (SNB-75 CNS) 257 nM | GI50 (COLO 205 colon) 310 nM | GI50 (SF-295 CNS) 323 nM | GI50 (CAKI-1 renal) 399 nM | GI50 (OVCAR-3 ovarian) 312 nM | GI50 (A498 renal) 283 nM | GI50 (SR leukemia) 360 nM | GI50 (NCI-H460 lung) 379 nM | GI50 (NCI-H522 lung) 266 nM | GI50 (SW-620 colon) 398 nM | GI50 (M14 melanoma) 365 nM | GI50 (K-562 leukemia) 383 nM | GI50 (MDA-MB-435) 198 nM | GI50 (CCRF-CEM leukemia) 407 nM
> 88100 nM: TGI (MDA-MB-231 breast)
98800 nM: TGI (SNB-75 CNS)
> 100000 nM: TGI (HT29 colon) | TGI (TK-10 renal) | TGI (A549 NSCLC) | TGI (UO-31 renal) | TGI (MALME-3M melanoma) | TGI (LOX IMVI melanoma) | TGI (HOP-62 NSCLC) | TGI (MOLT-4 leukemia) | TGI (CAKI-1 renal) | TGI (HCT-116 colon) | TGI (NCI-H226 lung) | TGI (OVCAR-4 ovarian) | TGI (U251 CNS) | TGI (NCI-H460 lung) | TGI (OVCAR-5 ovarian) | TGI (MCF7 breast) | TGI (NCI-H23 lung) | TGI (786-0 renal) | TGI (ACHN renal) | TGI (SK-MEL-28 melanoma) | TGI (KM12 colon) | TGI (EKVX NSCLC) | TGI (SF-268 CNS) | TGI (PC-3 prostate) | TGI (SW-620 colon) | TGI (DU-145 prostate) | TGI (RPMI-8226 leukemia) | TGI (SN12C renal) | TGI (M14 melanoma) | TGI (SK-MEL-2 melanoma) | TGI (K-562 leukemia) | TGI (SNB-19 CNS) | TGI (OVCAR-8 ovarian) | TGI (HCT-15 colon) | TGI (SK-OV-3 ovarian) | TGI (IGROV1 ovarian) | TGI (HS 578T breast) | TGI (CCRF-CEM leukemia) | TGI (UACC-62 melanoma) | TGI (SK-MEL-5 melanoma)
inactive: GI50 (TK-10 renal) > 100000 nM | GI50 (A549 NSCLC) 675 nM | GI50 (UO-31 renal) 1120 nM | GI50 (MALME-3M melanoma) > 100000 nM | GI50 (LOX IMVI melanoma) 798 nM | GI50 (HOP-62 NSCLC) 4340 nM | GI50 (MOLT-4 leukemia) 438 nM | GI50 (BT-549 breast) 1340 nM | GI50 (HCT-116 colon) 437 nM | GI50 (NCI-H226 lung) > 47100 nM | GI50 (MDA-MB-231 breast) 917 nM | GI50 (OVCAR-4 ovarian) 964 nM | GI50 (U251 CNS) 561 nM | GI50 (HCC-2998 colon) 1110 nM | GI50 (OVCAR-5 ovarian) > 30400 nM | GI50 (MCF7 breast) 464 nM | GI50 (NCI-H23 lung) 682 nM | GI50 (786-0 renal) 615 nM | GI50 (ACHN renal) 1250 nM | GI50 (SK-MEL-28 melanoma) > 55000 nM | GI50 (KM12 colon) 471 nM | GI50 (EKVX NSCLC) 780 nM | GI50 (SF-268 CNS) 1140 nM | GI50 (PC-3 prostate) 448 nM | GI50 (HOP-92 NSCLC) 1250 nM | GI50 (DU-145 prostate) 477 nM | GI50 (RPMI-8226 leukemia) 483 nM | GI50 (SN12C renal) 1130 nM | GI50 (SK-MEL-2 melanoma) 476 nM | GI50 (SNB-19 CNS) 463 nM | GI50 (OVCAR-8 ovarian) 712 nM | GI50 (HCT-15 colon) 435 nM | GI50 (SK-OV-3 ovarian) 559 nM | GI50 (IGROV1 ovarian) 1450 nM | GI50 (HS 578T breast) 458 nM | GI50 (UACC-62 melanoma) 516 nM | GI50 (SK-MEL-5 melanoma) 446 nM
2040 nM: TGI (OVCAR-3 ovarian)
> 38900 nM: TGI (HOP-92 NSCLC)
927 nM: TGI (A498 renal)
> 42700 nM: TGI (SR leukemia)
5580 nM: TGI (SF-539 CNS)
1360 nM: TGI (COLO 205 colon)
> 35800 nM: TGI (HCC-2998 colon)
> 23400 nM: TGI (BT-549 breast)
> 48400 nM: TGI (SF-295 CNS)

C=CCOC(=O)CCCCCCCCCCCCCCCOC(=O)C1=C(CCC[C@@H](C)O[Si](C)(C)C(C)(C)C)N=C(N)N2[C@H](CC3(CC/C=C\[C@H](CC)O[Si](C(C)C)(C(C)C)C(C)C)OCCO3)CC[C@@H]12
> 100000 nM: TGI (T-47D breast) | TGI (TK-10 renal) | TGI (UO-31 renal) | TGI (SNB-75 CNS) | TGI (A498 renal) | TGI (NCI-H226 lung) | TGI (MDA-MB-231 breast) | TGI (OVCAR-4 ovarian) | TGI (HCC-2998 colon) | TGI (MCF7 breast) | TGI (ACHN renal) | TGI (SK-MEL-28 melanoma) | TGI (DU-145 prostate) | TGI (SN12C renal) | TGI (SK-MEL-2 melanoma) | TGI (SNB-19 CNS) | TGI (SK-OV-3 ovarian)

Source: PubChem BioAssay (NCI)
